Experiments:
[1] = target: T1, KDM4A (Homo sapiens, UniProt O75164); test: KDM4A Assay (SAMDI mass spectrometry demethylase assay); format: biochemical; settings: N-terminal His-tagged KDM4A 1-350; class symbols; read-out: 4A IC50
T1 construct: N-terminal His-tagged KDM4A^1-350 was purchased from BPS Biosciences; His (N); purchased BPS Biosciences
T1 sequence (O75164 1-350): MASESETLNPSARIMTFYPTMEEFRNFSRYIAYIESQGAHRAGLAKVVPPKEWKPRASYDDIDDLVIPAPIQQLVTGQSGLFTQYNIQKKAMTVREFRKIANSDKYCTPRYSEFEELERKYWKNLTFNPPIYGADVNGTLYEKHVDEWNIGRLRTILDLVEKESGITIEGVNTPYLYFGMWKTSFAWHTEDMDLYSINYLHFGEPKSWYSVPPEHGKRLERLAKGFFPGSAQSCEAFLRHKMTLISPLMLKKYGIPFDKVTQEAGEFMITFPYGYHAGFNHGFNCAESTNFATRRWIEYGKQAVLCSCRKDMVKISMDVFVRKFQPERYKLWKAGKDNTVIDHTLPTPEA
Outline: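 His-tagged KDM4A 1-350 (5 nM final) was preincubated 30 min with compound (10 μM final for screening) in 50 mM HEPES pH 8.0 with ascorbate, 10 μM Fe(II) and TCEP. Biotinylated Kme2 peptide (600 nM) and 2-oxoglutarate (5 μM) reacted 120 min at 25°C before a formic acid stop. SAMDI-MS % conversion from substrate and product peak areas; IC50 from dose-response.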

[2] = target: T2, KDM4C (Homo sapiens, UniProt Q9H3R0); test: KDM4C Assay (SAMDI mass spectrometry demethylase assay); format: biochemical; settings: N-terminal GST-tagged KDM4C 2-372; class symbols; read-out: 4C IC50
T2 construct: N-terminal GST-tagged KDM4C^2-372 was purchased from BPS Biosciences; GST (N); purchased BPS Biosciences
T2 sequence (Q9H3R0 2-372): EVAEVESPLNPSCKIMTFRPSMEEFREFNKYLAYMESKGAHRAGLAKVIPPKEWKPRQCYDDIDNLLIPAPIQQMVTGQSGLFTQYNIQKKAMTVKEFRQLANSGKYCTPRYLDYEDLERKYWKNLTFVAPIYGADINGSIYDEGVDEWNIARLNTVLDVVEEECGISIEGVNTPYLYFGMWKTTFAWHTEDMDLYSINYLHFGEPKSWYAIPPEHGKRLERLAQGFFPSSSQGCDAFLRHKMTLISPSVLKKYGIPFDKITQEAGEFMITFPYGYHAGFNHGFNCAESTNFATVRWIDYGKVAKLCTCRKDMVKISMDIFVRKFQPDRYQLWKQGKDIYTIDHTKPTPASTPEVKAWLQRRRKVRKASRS
Outline: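 GST-tagged KDM4C 2-372 (5 nM) preincubated 30 min with compound, then H3K9me3 biotinylated peptide (500 nM) and 2-oxoglutarate (15 μM) added in HEPES pH 8.0 with ascorbate, Fe(II), TCEP; 150 min at 25 °C, formic-acid quench. Conversion by SAMDI mass spectrometry from substrate/product peak AUC; IC50 from dose-response.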

Row | IC50 [1] | IC50 [2] | Structure (SMILES)
1 | 1000 to 10000 nM | 1000 to 10000 nM | O=C(O)c1ccncc1Nc1cc(-c2ccccc2)nn1[C@H]1CC[C@@H](O)CC1 [Compound 40, 3-((1-((cis)-4-Hydroxycyclohexyl)-3-phenyl-1H-pyrazol-5-yl)amino)isonicotinic acid]
2 | 100 to 1000 nM | 100 to 1000 nM | Cc1nn(C2CCN(C(C)C)CC2)cc1Nc1cnccc1C(=O)O [Compound 102, 3-((1-(1-isopropylpiperidin-4-yl)-3-methyl-1H-pyrazol-4-yl)amino)isonicotinic acid]
3 | 1000 to 10000 nM | 100 to 1000 nM | O=C(O)c1ccncc1Nc1cc(-c2ccccc2)nn1C1CCOCC1 [Compound 23, 3-((3-Phenyl-1-(tetrahydro-2H-pyran-4-yl)-1H-pyrazol-5-yl)amino)isonicotinic acid]
4 | 100 to 1000 nM | 1000 to 10000 nM | Cc1nn(-c2ccccc2C#N)cc1Nc1cnccc1C(=O)O [Compound 70, 3-((1-(2-cyanophenyl)-3-methyl-1H-pyrazol-4-yl)amino) isonicotinic acid]
5 | 1000 to 10000 nM | 10000 to 100000 nM | O=C(O)c1ccncc1Nc1c(-c2ccc(F)cc2)cnn1CCN1CCC(F)(F)CC1 [Compound 46, 3-((1-(2-(4,4-difluoropiperidin-1-yl)ethyl)-4-(4-fluorophenyl)-1H-pyrazol-5-yl)amino) isonicotinic acid]
6 | 1 to 100 nM | 1 to 100 nM | Cc1c(Nc2cnccc2C(=O)O)cnn1-c1ccccc1 [Compound 20, 3-((5-methyl-1-phenyl-1H-pyrazol-4-yl)amino)isonicotinic acid]
7 | 1 to 100 nM | 100 to 1000 nM | Cc1nn(-c2ccccc2)cc1Nc1cnccc1C(=O)O [Compound 19, 3-((3-Methyl-1-phenyl-1H-pyrazol-4-yl)amino)isonicotinic acid]
8 | 1000 to 10000 nM | 1000 to 10000 nM | Cn1ncc(-c2ccc(F)cc2)c1Nc1cnccc1C(=O)O [Compound 8, 3-((4-(4-fluorophenyl)-1-methyl-1H-pyrazol-5-yl)amino) isonicotinic acid]
9 | 100 to 1000 nM | 100 to 1000 nM | Cc1cc(Nc2cnccc2C(=O)O)n(C2CCOCC2)n1 [Compound 78, 3-((3-methyl-1-(tetrahydro-2H-pyran-4-yl)-1H-pyrazol-5-yl)amino) isonicotinic acid]

Reference: US20170291890A1 (Epizyme, Inc., priority 2014, published 2017)
